The text below walks through data of PMC12260535, “A novel thiazole-sulfonamide hybrid molecule as a promising dual tubulin/carbonic anhydrase IX inhibitor with anticancer activity” (Frontiers in Chemistry, 2025).

Read-outs that look alike come from different tables or passages of the source.

Assay [1] has as its system MCF-7 (breast adenocarcinoma) cells. The experiment in a line: MTT antiproliferative assay, MCF-7. As to conditions: Homo sapiens, read-out: IC50 MCF-7. The format is cell-based. How it is done:
(§1) . All cell lines were obtained from the Vacsera Cell Culture Library, Tissue Culture Unit, Cairo, Egypt, with ATCC certification. […] Check Appendix A for additional information.
(§2) . Cells were cultured in their respective recommended media supplemented with 10% fetal bovine serum and 1% penicillin-streptomycin and maintained at 37 °C in a humidified atmosphere containing 5% CO₂. Cell viability was assessed using the MTT assay, following the protocol provided with the In Vitro Toxicology Assay Kit, MTT Based (Sigma-Aldrich, TOX-1). Briefly, cells were seeded in 96-well plates at a density of 5 × 10³ cells/well and allowed to adhere overnight. […] Subsequently, 10 µL of reconstituted MTT solution (5 mg/mL in serum-free, phenol red-free medium) was added to each well and incubated for 3 h at 37 °C. The resulting formazan crystals were dissolved by adding 100 µL of the MTT Solubilization Solution, and the plates were gently shaken to ensure complete solubilization. Absorbance was recorded at 570 nm with a reference wavelength of 690 nm using a microplate reader. Cell viability was expressed as a percentage relative to untreated control cells. All experiments were conducted in triplicate, and IC₅₀ values were determined using linear regression analysis.

In assay [2] the test system is WI-38 normal lung fibroblast cells. The assay can be described thus: MTT cytotoxicity assay, normal WI-38 fibroblasts. As to conditions: Homo sapiens, 48 h, WI-38 normal fibroblasts. Format: cell-based. How it is done:
(§3) All cell lines were obtained from the Vacsera Cell Culture Library, Tissue Culture Unit, Cairo, Egypt, with ATCC certification. The assay enabled the detection of membrane-compromised cells based on the fluorescence intensity of DNA binding. Check Appendix A for additional information.
as §2, with “Cells” for “. Cells”
In general terms: Formazan colour is commonly taken as a measure of viable cells.

Assay [3] has as its system A549 (lung carcinoma) cells. The assay can be described thus: MTT antiproliferative assay, A549. Format: cell-based. As to conditions: Homo sapiens, read-out: IC50 A549. As to the method:
as §1, §2

Assay [4] has as its system 786-O (renal carcinoma) cells. The assay can be described thus: MTT antiproliferative assay, 786-O. The format is cell-based. As to conditions: Homo sapiens, read-out: IC50 786-O. How it is done:
as §3
as §2, with “Cells” for “. Cells”

Assay [5] concerns HT-29 (colon adenocarcinoma) cells. The assay can be described thus: MTT antiproliferative assay, HT-29. Format: cell-based. As to conditions: Homo sapiens, 48 h, HT-29 colorectal cancer cells. As to the method: as §3
as §2, with “Cells” for “. Cells”

Assay [6] concerns caspase-3. The experiment in a line: Active caspase-3 ELISA in HT-29 cells. Format: cell-based, human. An excerpt: This sandwich ELISA detects caspase-3 cleaved at Asp175/Ser176, enabling sensitive colorimetric measurement at 450 nm. Additional procedural details are provided in Appendix A (Supplementary Material).
This assay is based on a solid-phase sandwich ELISA principle, where an anti-human caspase-3 monoclonal antibody is pre-coated onto a microplate. Cell lysates or standards are captured by this antibody, followed by the addition of a rabbit polyclonal detection antibody specific for active caspase-3 cleaved at Asp175/Ser176. Detection is then performed using HRP-conjugated anti-rabbit IgG and TMB substrate. Cell lysates were prepared in protease inhibitor-supplemented cell extraction buffer and clarified by centrifugation. Samples were diluted in Standard Diluent Buffer and added to the wells along with a standard curve of human active caspase-3. The standard concentrations included 39, 78, 156, 313, 625, 1250, and 2500 ng/mL, which yielded optical density (OD) readings ranging from 0.192 to 2.733. A blank reading of 0.018 was subtracted from each standard OD, and the resulting data were used to generate a standard curve. […] After color development, the reaction was stopped with acid, and absorbance was read at 450 nm. The concentration of active caspase-3 in treated samples was determined using linear regression analysis of the standard curve. […]
For orientation: ELISA stands for enzyme-linked immunosorbent assay.

Assay [7] has as its target CA IX (Homo sapiens, UniProt Q16790). The assay can be described thus: Carbonic anhydrase inhibitor screening kit (colorimetric), CA IX.
Assay [8] deals with Bax. The experiment in a line: Bax ELISA in HT-29 cells. The format is cell-based, human. How it is done:
Changes in Bax levels were quantified in treated cell lysates to assess the apoptotic response. Comprehensive assay details are available in Appendix A (Supplementary Material).
This sandwich-based immunoassay utilizes a monoclonal antibody specific for human BAX-α to capture and quantify the protein in cell lysates. Cells were lysed using the provided Cell Lysis Buffer, freshly supplemented with phenylmethylsulfonyl fluoride (PMSF, 1 mM) and protease inhibitor cocktail (PIC, 0.5 µL/mL). Lysates were incubated on ice, vortexed, and centrifuged at 16,000 rpm for 15 minutes at 4 °C. The supernatants were collected and diluted with the kit's Assay Buffer. A standard curve was generated using BAX-α standards with concentrations of 62.5, 125, 250, 500, 1000, and 2000 ng/mL. The corresponding net absorbance values (after subtracting the average blank OD of 0.023) were 0.110, 0.192, 0.338, 0.781, 1.443, and 2.496, respectively. Absorbance was measured at 450 nm with a reference wavelength of 570–590 nm. BAX concentrations in the samples were calculated using linear regression analysis based on the standard curve obtained. The assay provided a sensitive and quantitative measure of BAX modulation in response to compound 7.

Assay [9] deals with Bcl-2. The assay can be described thus: Bcl-2 ELISA in HT-29 cells. Format: cell-based, human. As to the method: Absorbance was measured at 450 nm to determine changes in Bcl-2 expression in response to treatment. A full description of the assay protocol is included in Appendix A (Supplementary Material).
The assay is based on a sandwich ELISA format, where human Bcl-2 is captured by a monoclonal antibody coated on a microwell plate and detected using a biotin-conjugated anti-Bcl-2 antibody followed by Streptavidin-HRP and TMB substrate. Cells were lysed using the supplied Lysis Buffer at a concentration of 5 × 10⁶ cells/mL and incubated for 1 hour at room temperature with gentle shaking. Lysates were clarified by centrifugation at 1000 × g for 15 minutes, and the supernatants were collected for immediate use or stored at –80 °C. For the assay, 20 µL of sample was added to wells along with 80 µL of Sample Diluent, followed by 50 µL of diluted biotin-conjugate. After a 2-hour incubation at room temperature, plates were washed and incubated with diluted Streptavidin-HRP for 1 hour. […] Absorbance was measured at 450 nm with optional correction between 610–650 nm. […] The corresponding absorbance values ranged from approximately 0.121 to 2.461, with a background (blank) absorbance of 0.023. Net absorbance values were calculated by subtracting the blank from each standard, and the resulting data were used to construct a calibration curve. […]

Assay [10] concerns p53. The assay can be described thus: p53 ELISA in HT-29 cells. Format: cell-based, human.
Assay [11] deals with CA XII (Homo sapiens, UniProt O43570). The assay can be described thus: Carbonic anhydrase inhibitor screening kit (colorimetric), CA XII.
Chain of CA XII (O43570 25-354): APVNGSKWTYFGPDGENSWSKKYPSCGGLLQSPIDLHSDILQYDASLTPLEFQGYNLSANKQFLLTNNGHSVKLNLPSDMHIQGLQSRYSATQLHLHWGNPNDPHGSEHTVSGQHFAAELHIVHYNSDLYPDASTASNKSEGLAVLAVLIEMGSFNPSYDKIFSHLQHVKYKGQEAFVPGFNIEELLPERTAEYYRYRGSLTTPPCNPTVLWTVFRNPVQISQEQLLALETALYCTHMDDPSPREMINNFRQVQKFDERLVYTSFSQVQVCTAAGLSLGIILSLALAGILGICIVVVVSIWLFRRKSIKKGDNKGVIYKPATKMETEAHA
For assay [12], the target named is CA II (Homo sapiens, UniProt P00918). The experiment in a line: Carbonic anhydrase inhibitor screening kit (colorimetric), CA II.
Assay [13] has as its target CA I (Homo sapiens, UniProt P00915). The experiment in a line: Carbonic anhydrase inhibitor screening kit (colorimetric), CA I.
For assay [14], the system named is caspase-9. The experiment in a line: Caspase-9 ELISA in HT-29 cells. Format: cell-based, human. From the text:
This assay employs a sandwich ELISA format, utilizing a specific capture antibody and an HRP-conjugated detection system, with absorbance measured at 450 nm. A detailed methodology is provided in Appendix A (Supplementary Material).
This solid-phase sandwich ELISA employs a monoclonal antibody pre-coated on a 96-well microplate to capture caspase-9 from samples. A rabbit polyclonal detection antibody specific to human caspase-9 is subsequently added, followed by an HRP-conjugated anti-rabbit IgG and TMB substrate for colorimetric detection. The intensity of the yellow product formed after stopping the reaction with phosphoric acid is proportional to the amount of caspase-9 present and is measured at 450 nm. […] Lysates were centrifuged at 1,000 × g for 15 minutes, and the clear supernatants were collected and either analyzed immediately or stored at –80 °C. […] Standard concentrations of 1.6, 3.1, 6.3, 12.5, 25, 50, and 100 ng/mL yielded OD values of 0.140, 0.167, 0.213, 0.239, 0.501, 0.799, and 1.639 respectively, with a blank reading of 0.042. Net OD values were calculated by subtracting the blank absorbance, and the standard curve was constructed accordingly. The concentration of caspase-9 in each sample was determined using linear regression analysis, and final values were adjusted by the dilution factor.

The target of assay [15] is CA IX. As to conditions: cited from earlier work.
For assay [16], the system named is tubulin. As to conditions: read-out: tubulin polymerization IC50, cited from earlier work.

Chain of CA I (P00915 whole entry): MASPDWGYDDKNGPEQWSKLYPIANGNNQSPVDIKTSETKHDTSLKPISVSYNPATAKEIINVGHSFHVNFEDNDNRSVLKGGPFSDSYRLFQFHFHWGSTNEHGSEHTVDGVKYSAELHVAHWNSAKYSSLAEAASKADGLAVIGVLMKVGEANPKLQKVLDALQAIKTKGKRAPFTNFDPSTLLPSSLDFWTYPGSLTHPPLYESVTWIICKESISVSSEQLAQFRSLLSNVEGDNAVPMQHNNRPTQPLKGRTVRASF

Usually IC50 stands for the concentration that gives 50% inhibition. For the compound `COc1ccc(/C=C\c2cc(OC)c(OC)c(OC)c2)cc1O` [CA-4, combretastatin A-4, reference compound], the IC50 in assay [1] (MCF7, MTT assay, 48 h, MCF-7 breast cancer cells) amounted to 1820 nM; in assay [2], 28100 nM; in assay [3] (MTT assay, 48 h, A549 lung cancer cells) it was 440 nM; in assay [4] (786-0, MTT assay, 48 h, 786-O renal cancer cells), 3270 nM; in [5], 2150 nM.
As for `Cc1[nH]c(=S)sc1C(=O)/C=C/c1ccc(S(N)(=O)=O)cc1` [Compound 7, (E)-4-(3-(4-methyl-2-thioxo-2,3-dihydrothiazol-5-yl)-3-oxoprop-1-en-1-yl)benzenesulfonamide], the “Caspase 3 Conc” value in assay [6] (ELISA, DMSO control 57.64 ± 1.36) is 511.27 ± 13.18 pg/mL. For the same compound, the “Caspase 3 Fold change” value in assay [6] (versus DMSO control) came out at 8.87. In addition, the IC50 in assay [1] (MCF7, 48 h) amounted to 3630 nM; in assay [7], 21 ± 4 nM; in assay [11] it was 114 ± 12 nM; in assay [3] (A549, 48 h), 6820 nM; in [12], 381 ± 45 nM; in assay [4] (786-0, 48 h) it was 1560 nM. Also, the IC50 in assay [13] is 1900 ± 250 nM. Also, the “Bax Conc” value in assay [8] (ELISA, DMSO control 68.50 ± 1.67) is on record as 392.25 ± 14.58 pg/mL. Also, the “Bax Fold change” value in assay [8] (versus DMSO control) was 5.73. Also, the “Bcl-2 Conc” value in [9] (ELISA, DMSO control 19.25 ± 0.43) is given as 6.212 ± 0.093 pg/mL. The “Bcl-2 Fold change” value in assay [9] (versus DMSO control) was 0.323. In addition, the “P53 Conc” value in [10] (ELISA, DMSO control 150.66 ± 3.33) was 1,224.00 ± 6.67 pg/mL. Moreover, the “P53 Fold change” value in assay [10] (versus DMSO control) amounted to 8.12. Moreover, in assay [14] (ELISA, DMSO control 5.09 ± 0.26), the “Caspase-9 Conc” value was 49.39 ± 1.13 ng/mL. Also, the “Caspase-9 Fold change” value in [14] (versus DMSO control) is 9.70.
The Ki is a dissociation constant, usually derived from enzyme kinetics or from competition with a known ligand. On to `NS(=O)(=O)c1ccc(NC(=O)Nc2cc3cc(Br)ccc3o2)cc1` [Compound II], for which the Ki in assay [15] (ref Shaldam et al., 2021) was 5.5 nM.
In the case of `COc1ccc2[nH]cc(/C=N/Nc3nc(-c4cccc(Br)c4)cs3)c2c1` [Compound VII], in assay [16] (ref Wang et al., 2024), the IC50 is 1680 nM.
`COc1cc(-c2csc(NC(=O)CNc3ccc([N+](=O)[O-])cc3)n2)cc(OC)c1OC` [compound VIII]: in assay [16] (ref El-Abd et al., 2022), the IC50 is 2000 nM.
As for `CCOc1ccc(-c2sc(N)nc2-c2ccc(OC)c3ccccc23)cc1` [compound VI], the IC50 in [16] (ref Wang et al., 2021) was 3300 nM.
As for `COc1cc(/C=C/C(=O)c2nnn(-c3ccc(S(N)(=O)=O)cc3)c2C)cc(OC)c1OC` [compound V], the Ki in [15] (ref Abdelhakeem et al., 2024) was 30 nM.
